Data published in BindingDB's records for doi:10.3109/14756369709035812 (Universite Paul Sabatier, 1997).

Target: T1, Hexokinase-1 (Saccharomyces cerevisiae (strain ATCC 204508 / S288c), UniProt P04806)
T1 sequence (P04806 whole entry): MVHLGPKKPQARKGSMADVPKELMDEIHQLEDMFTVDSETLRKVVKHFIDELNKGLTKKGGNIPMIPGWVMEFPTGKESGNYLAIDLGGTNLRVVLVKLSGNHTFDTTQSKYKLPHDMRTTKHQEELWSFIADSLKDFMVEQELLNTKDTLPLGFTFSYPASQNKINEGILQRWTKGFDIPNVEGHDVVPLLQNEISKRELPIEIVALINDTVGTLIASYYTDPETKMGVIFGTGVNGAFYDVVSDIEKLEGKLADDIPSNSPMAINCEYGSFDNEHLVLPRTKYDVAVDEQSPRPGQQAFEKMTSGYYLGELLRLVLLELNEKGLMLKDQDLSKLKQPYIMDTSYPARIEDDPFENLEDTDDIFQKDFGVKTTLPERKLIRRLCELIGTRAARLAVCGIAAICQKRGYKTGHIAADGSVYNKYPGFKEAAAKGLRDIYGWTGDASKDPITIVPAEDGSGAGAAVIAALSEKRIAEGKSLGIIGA
Experiment: Enzyme Inhibition Assay
Conditions: pH 7.6; 25 °C
Description: The assay phosphotransferase activity was followed spectrophotometrically b reduction of NADP in the presence of an excess of glucose-6-phosphate-dehydrogenase (method A). ATPase activity was measured by spectrophotometric measurement of the rate of oxidation of NADH in the presence of phospho-enol-pyruvate, pyruvated-kinase and lactate-dehydrogenase (method B).

Row | IC50 | Compound
1 | 3 mM | O=C(NC1C(O)OC(CO)C(O)C1O)c1ccccc1[N+](=O)[O-] (configuration not stated) [Glucosamine analog, 7]
2 | 6 mM | Nc1cccc(C(=O)NC2C(O)OC(CO)C(O)C2O)c1 (configuration not stated) [Glucosamine analog, 10]
3 | 7 mM | O=C(N[C@@H]1[C@@H](O)[C@H](O)[C@@H](CO)O[C@H]1O)c1ccccc1 [Glucosamine analog, 1]
4 | 6 mM | O=C(NC1C(O)OC(CO)C(O)C1O)c1cccc([N+](=O)[O-])c1 (configuration not stated) [Glucosamine analog, 8]

The remaining lines, values behind:

Row | Compound | IC50
5 | Cc1ccccc1C(=O)N[C@@H]1[C@@H](O)[C@H](O)[C@@H](CO)O[C@@H]1O [Glucosamine analog, 2] | 8 mM
6 | Nc1ccccc1C(=O)NC1C(O)OC(CO)C(O)C1O (configuration not stated) [Glucosamine analog, 9] | 1 mM
7 | CC(=O)Nc1ccccc1C(=O)NC1C(O)OC(CO)C(O)C1O (configuration not stated) [Glucosamine analog, 4] | 18 mM
